The values below come from US6589967B1, “Oxime O-ether compounds and fungicides for agricultural and horticultural use” (Nippon Soda Co. Ltd., priority 1999, dated 2003).

Structures are written as SMILES.

For the assay, the system named is snap bean gray mold fungus (Botrytis cinerea). The assay can be described thus: Test on Kidney Bean Gray Mold Control. The assay is classed as in vivo. The settings on record: 50 ppm active ingredient, cut Kidney bean flowers (Nagauzura) dipped, spores sprayed, placed on detached leaves, 7 days at 20° C., high humidity. How it is done: Now, explanation is made on how the compounds according to the present invention are effective as an active ingredient of a fungicide for controlling various plant diseases with reference to Test examples described later. In the Test Examples, the control efficacy is determined by visually checking the infested state of the test plants at the time of observation, namely, checking the damage to the host plants and the developing state of the disease-causing fungus appeared on leaves, stems, etc. of the test plants, compared to the control test plants which are healthy. Flowers of Kidney bean (variety; Nagauzura) grown in a flat vessel for culturing seedlings are cut, and the cut flowers were dipped into a solution prepared by diluting the emulsifiable concentrate prepared for the compound of the present invention at a concentration of 50 ppm based on the active ingredient. After the dipping, the flowers were dried at a room temperature. Then, spore solution of snap bean gray mold fungus (Botrytis cinerea) was sprayed to the flowers. The flowers sprayed with spores of the gray mold fungus were placed on the leaves which were detached from healthy Kidney bean plants, and those leaves were placed in a room being maintained at 20° C. and high humidity with repeated lighting of 12 hours intervals, and the Kidney bean leaves were incubated in the room for 7 days. Then, the infestation degree by the fungus on the leaves was checked in comparison to the control healthy leaves to determine the control efficacy. […] Note that the compound numbers in the following correspond to the same compound numbers in the Table 1. Compound Nos. 1, 3, 6, 7, 11, 12, 13, 14, 15, 18, 20, 21, 22, 23, 25, 26, 27, 29, 36, 48, 49, 192, 194, 195, 196, 198, 201, 203, 204, 207, 208, 209, 210, 213, 216, 219, 220, 222, 223, 224, 225, 227, 228, 229, 231, 233, 234, 235, 236, 237, 239, 240, 242
For `COc1cccc(OC)c1C(C)ON=Cc1cc(C)cc(C)n1` (racemic) [compound 239], the “control performance (control efficacy)” value is “excellent control performance”. As to `COc1cccc(F)c1CON=C(C)c1cc(C)cc(C)n1` [Compound No. 1, 1-(4,6-Dimethyl-2-pyridinyl)ethanone O-[(2-Fluoro-6-methoxyphenyl)methyl]oxime], the “control performance (control efficacy)” value is “excellent control performance”. With `COc1cccc(C)c1CON=C(C)c1cc(C)cc(C)n1` [Compound No. 7, 1-(4,6-Dimethyl-2-pyridinyl)ethanone O-[(2-Methoxy-6-methylphenyl)methyl] Oxime], the “control performance (control efficacy)” value is given as “excellent control performance”. As to `COc1ccc(CON=C(C)c2cc(C)cc(C)n2)c(OC)c1` [Compound No. 13, 1-(4,6-Dimethyl-2-pyridinyl)ethanone O-[(2,4-Dimethoxyphenyl)methyl] Oxime], the “control performance (control efficacy)” value was “excellent control performance”.

Take `COc1cccc(OC)c1CON=C(C)c1cc(Cl)cc(C)n1` [Compound No. 18, 1-(4-Chloro-6-methyl-2-pyridinyl)ethanone O-[(2,6-Dimethoxyphenyl)methyl] Oxime]: the “control performance (control efficacy)” value was “excellent control performance”. Turning to `CCC(=NOCc1c(OC)cccc1OC)c1cc(C)cc(C)n1` [Compound No. 20], the “control performance (control efficacy)” value is reported as “excellent control performance”. Turning to `COc1ccc(O)c(CON=C(C)c2cc(C)cc(C)n2)c1` [Compound No. 21], the “control performance (control efficacy)” value is “excellent control performance”. For the compound `COc1ccc(OC)c(CON=C(C)c2cc(C)cc(C)n2)c1` [Compound No. 22], the “control performance (control efficacy)” value is listed as “excellent control performance”. `COCOc1cccc(OC)c1CON=C(C)c1cc(C)cc(C)n1` [Compound No. 23]: the “control performance (control efficacy)” value is recorded as “excellent control performance”. For `COc1cccc(CON=C(C)c2cc(C)cc(C)n2)c1O` [Compound No. 25, 1-(4,6-Dimethyl-2-pyridinyl)ethanone O-[(2-hydroxy-3-methoxyphenyl)methyl] Oxime] the value was “excellent control performance”.

Take `COc1cccc(OC)c1CON=Cc1cc(C)cc(C)n1` [Compound No. 196, 4,6-Dimethyl-2-pyridinecarboxyaldehyde O-[(2,6-Dimethoxyphenyl)methyl] Oxime]: the “control performance (control efficacy)” value is “excellent control performance”. Regarding `COc1cccc(OC)c1CON=Cc1cc(Cl)cc(C)n1` [Compound No. 219, 4-Chloro-6-methyl-2-pyridinecarboxyaldehyde O-[(2,6-Dimethoxyphenyl)methyl] Oxime], the “control performance (control efficacy)” value is “excellent control performance”.

In the case of `COc1cccc(N)c1CON=Cc1cc(C)cc(C)n1` [Compound No. 222, 4,6-Dimethyl-2-pyridinecarboxyaldehyde O-[(2-Methoxy-6-aminophenyl)methyl] Oxime], the “control performance (control efficacy)” value is listed as “excellent control performance”. For the compound `CNc1cccc(OC)c1CON=Cc1cc(C)cc(C)n1` [Compound No. 223, 4,6-Dimethyl-2-pyridinecarboxyaldehyde O-[(2-Methoxy-6-methylaminophenyl)methyl] Oxime], the “control performance (control efficacy)” value is recorded as “excellent control performance”. For `COc1cccc(N(C)C)c1CON=Cc1cc(C)cc(C)n1` [Compound No. 225, 4,6-dimethyl-2-pyridinecarboxyaldehyde O-[(2-methoxy-6-dimethylaminophenyl)methyl] oxime], the “control performance (control efficacy)” value was “excellent control performance”.

On to `COc1cc(OC)c(CON=Cc2cc(C)cc(C)n2)c(OC)c1` [Compound No. 233, 4,6-Dimethyl-2-pyridinecarboxyaldehyde O-[(2,4,6-Trimethoxyphenyl)methyl]oxime], for which the “control performance (control efficacy)” value is listed as “excellent control performance”. `COc1cccc(Br)c1CON=Cc1cc(C)cc(C)n1` [Compound No. 234, 4,6-Dimethyl-2-pyridinecarboxyaldehyde O-[(2-Methoxy-6-bromophenyl)methyl]oxime]: the “control performance (control efficacy)” value is given as “excellent control performance”. Take `C#Cc1cccc(OC)c1CON=Cc1cc(C)cc(C)n1` [Compound No. 235, 4,6-Dimethyl-2-pyridinecarboxyaldehyde O-[(2-Methoxy-6-ethynylphenyl)methyl]oxime]: the “control performance (control efficacy)” value was “excellent control performance”. Regarding `COc1ccc(Cl)c(OC)c1CON=C(C)c1cc(C)cc(C)n1` [compound 3], the “control performance (control efficacy)” value was “excellent control performance”.

As for `COCOc1cc(OC)ccc1CON=C(C)c1cc(C)cc(C)n1` [compound 6], the “control performance (control efficacy)” value was “excellent control performance”. With `COc1cccc(OC)c1C(C)ON=C(C)c1cc(C)cc(C)n1` (stereo not drawn) [compound 11], the “control performance (control efficacy)” value is reported as “excellent control performance”.

Regarding `COCOc1ccc(OC)cc1CON=C(C)c1cc(C)cc(C)n1` [compound 12], the “control performance (control efficacy)” value is reported as “excellent control performance”. On to `COc1ccc(CON=C(C)c2cc(C)cc(C)n2)c(O)c1` [compound 14], for which the “control performance (control efficacy)” value is recorded as “excellent control performance”. With `COc1cc(C)ccc1CON=C(C)c1cc(C)cc(C)n1` [compound 15], the “control performance (control efficacy)” value is given as “excellent control performance”.

As for `COc1ccc(C)cc1CON=C(C)c1cc(C)cc(C)n1` [compound 26], the “control performance (control efficacy)” value was “excellent control performance”.

Turning to `CCc1cccc(OC)c1CON=C(C)c1cc(C)cc(C)n1` [compound 27], the “control performance (control efficacy)” value is on record as “excellent control performance”.

Regarding `COc1cccc(Cl)c1CON=C(C)c1cc(C)cc(C)n1` [compound 29], the “control performance (control efficacy)” value is reported as “excellent control performance”. For the compound `COc1cccc(C)c1CON=C(C)c1cc(C)ccn1` [compound 36], the “control performance (control efficacy)” value is given as “excellent control performance”. For `COc1ccc(F)c(OC)c1CON=Cc1cc(C)cc(C)n1` [compound 48], the “control performance (control efficacy)” value was “excellent control performance”. For the compound `CC(=NOCc1ccc(C)cc1O)c1cc(C)cc(C)n1` [compound 49], the “control performance (control efficacy)” value was “excellent control performance”. Turning to `COCOc1cc(C)ccc1CON=C(C)c1cc(C)cc(C)n1` [compound 192], the “control performance (control efficacy)” value was “excellent control performance”.

As for `COCOc1c(C)cccc1CON=C(C)c1cc(C)cc(C)n1` [compound 194], the “control performance (control efficacy)” value is “excellent control performance”.

As to `COc1cccc(OC)c1CON=C(C)c1cc(C)cc(C)n1` [compound 195], the “control performance (control efficacy)” value is listed as “excellent control performance”. With `COc1ccc(F)c(F)c1CON=C(C)c1cc(C)cc(C)n1` [compound 198], the “control performance (control efficacy)” value is recorded as “excellent control performance”. For `COc1c(F)ccc(F)c1CON=C(C)c1cc(C)cc(C)n1` [compound 201] the value was “excellent control performance”. As to `COc1cccc(C)c1CON=Cc1cc(C)cc(C)n1` [compound 203], the “control performance (control efficacy)” value is listed as “excellent control performance”. As to `COc1cccc(F)c1CON=Cc1cc(C)cc(C)n1` [compound 204], the “control performance (control efficacy)” value is given as “excellent control performance”. Take `COc1cccc(CON=C(C)c2cc(C)cc(C)n2)c1OC(C)=O` [compound 207]: the “control performance (control efficacy)” value is given as “excellent control performance”. `COc1cc(C)cc(OC)c1CON=Cc1cc(C)cc(C)n1` [compound 208]: the “control performance (control efficacy)” value is “excellent control performance”. On to `COc1cc(C)cc(OC)c1CON=C(C)c1cc(C)cc(C)n1` [compound 209], for which the “control performance (control efficacy)” value is given as “excellent control performance”. Take `C=Cc1cccc(OC)c1CON=Cc1cc(C)cc(C)n1` [compound 210]: the “control performance (control efficacy)” value is reported as “excellent control performance”. For `COc1cc(Cl)cc(OC)c1CON=Cc1cc(C)cc(C)n1` [compound 213] the value was “excellent control performance”; for `COc1cc(F)cc(OC)c1CON=Cc1cc(C)cc(C)n1` [compound 216], “excellent control performance”; for `COc1cccc(F)c1CON=Cc1cc(Cl)cc(C)n1` [compound 220], “excellent control performance”. Consider `COc1cc(F)c(CON=Cc2cc(C)cc(C)n2)c(OC)c1` [compound 224], for which the “control performance (control efficacy)” value is listed as “excellent control performance”. In the case of `COc1cccc(OC(C)=O)c1CON=Cc1cc(C)cc(C)n1` [compound 227], the “control performance (control efficacy)” value is “excellent control performance”.

Consider `COc1cccc(OC)c1CON=Cc1cccc(C)n1` [compound 228], for which the “control performance (control efficacy)” value is “excellent control performance”.

With `COc1cccc(OC)c1CON=Cc1cc(Br)cc(C)n1` [compound 229], the “control performance (control efficacy)” value was “excellent control performance”.
